# Tested on: PniDAH7PS
# Conditions: read-out: CM activity / KM, 50 mM BTP pH 7.4, 35 °C
smiles,measurement,value
C=C(O[C@@H]1C=C(C(=O)O)C=C[C@H]1O)C(=O)O [chorismate],Km,21 ± 2 µM

# Source: article PMC8408635 (The Journal of Biological Chemistry, 2021)
